Results reported in patent US20110045101A1, “FUNGICIDAL SUBSTITUTED AZOLES” (E.I. Du Pont De Nemours and Company, priority 2009, published 2011).
Marks after values point to notes of the source that are not given here.

What was measured:
Type in all cases: in vivo
Conditions in all cases: 100 = 100% disease control
[1] = tested on: Erysiphe graminis f. sp. tritici; assay: Test J: wheat powdery mildew on wheat seedlings, sprayed the day before inoculation, visual disease rating
Excerpt: (§1) General protocol for preparing test suspensions for Tests A-J: The test compounds were first dissolved in acetone in an amount equal to 3% of the final volume and then suspended at the desired concentration (in ppm) in acetone and purified water (50/50 mix) containing 250 ppm of the surfactant Trem® 014 (polyhydric alcohol esters). The resulting test suspensions were then used in tests A-J. Spraying a 200 ppm test suspension to the point of run-off on the test plants was the equivalent of a rate of 500 g/ha. […] The test suspension was sprayed to the point of run-off on wheat seedlings. […] A dash (-) indicates no test results. All results are for 200 ppm except where followed by “*”, which indicates 40 ppm.

[2] = tested on: Puccinia recondita f. sp. tritici; assay: Test I: wheat leaf rust on wheat seedlings, sprayed the day before inoculation, visual disease rating
Excerpt: as §1

Septoria nodorum = assay: Test F: wheat glume blotch on wheat seedlings, sprayed the day before inoculation, visual disease rating
Excerpt: as §1

Alternaria solani = assay: Test D: tomato early blight, sprayed the day before inoculation, visual disease rating
Excerpt: as §1

Septoria tritici = assay: Test G: wheat leaf blotch on wheat seedlings, sprayed the day before inoculation, visual disease rating
Excerpt: General protocol for preparing test suspensions for Tests A-J: The test compounds were first dissolved in acetone in an amount equal to 3% of the final volume and then suspended at the desired concentration (in ppm) in acetone and purified water (50/50 mix) containing 250 ppm of the surfactant Trem® 014 (polyhydric alcohol esters). The resulting test suspensions were then used in tests A-J. Spraying a 200 ppm test suspension to the point of run-off on the test plants was the equivalent of a rate of 500 g/ha. […] The test suspension was sprayed to the point of run-off on wheat seedlings. The following day the seedlings were inoculated with a spore suspension of Septoria tritici (the causal agent of wheat leaf blotch) and incubated in saturated atmosphere at 24° C. for 48 h, and then moved to a growth chamber at 20° C. for 19 days, after which time visual disease ratings were made. […] A dash (-) indicates no test results. All results are for 200 ppm except where followed by “*”, which indicates 40 ppm.

Botrytis cinerea = assay: Test C: tomato Botrytis on tomato seedlings, sprayed the day before inoculation, visual disease rating
Excerpt: General protocol for preparing test suspensions for Tests A-J: The test compounds were first dissolved in acetone in an amount equal to 3% of the final volume and then suspended at the desired concentration (in ppm) in acetone and purified water (50/50 mix) containing 250 ppm of the surfactant Trem® 014 (polyhydric alcohol esters). The resulting test suspensions were then used in tests A-J. Spraying a 200 ppm test suspension to the point of run-off on the test plants was the equivalent of a rate of 500 g/ha. […] The test suspension was sprayed to the point of run-off on tomato seedlings. […] A dash (-) indicates no test results. All results are for 200 ppm except where followed by “*”, which indicates 40 ppm.

[3] = 200 ppm, 0 = no control relative to controls
[4] = 40 ppm (marked *), 0 = no control

Structure (SMILES) | Test J disease control rating [1, 3] [%] | Test I disease control rating [2, 3] [%] | Test F disease control rating (Septoria nodorum; [3]) [%] | Test D disease control rating (Alternaria solani; [3]) [%] | Test G disease control rating (Septoria tritici; [3]) [%] | Test C disease control rating (Botrytis cinerea; [3]) [%] | other results
COc1cc(F)c(-c2c(-c3ccc(Cl)c(F)c3)c(C)nn2C)c(F)c1 [compound 79] | 100 | 92 | 0 | 97 | 95 | 53 | 
Fc1ccc(Br)c(F)c1-c1c(Cl)ncn1-c1ccc(Cl)cc1 [compound 75] | 98 | 77 | 0 | 93 | 95 | 98 | 
Cc1nc(Cl)c(-c2c(F)ccc(F)c2F)n1-c1ccc(Cl)cc1 [compound 48] | 100 | 100 | 100 | 100 | 94 | 99 | 
Cc1nc(Cl)c(-c2c(F)ccc(Cl)c2F)n1-c1ccc(Cl)cc1 [compound 127] | 100 | 100 | 98 | 100 | 95 | 99 | 
COc1cc(F)c(-c2c(Cl)nc(Cl)n2-c2ccc(F)cc2)c(F)c1 [compound 142] | 100 | 100 | 97 | 100 | 94 | 99 | 
COc1ccc(F)c(-c2c(Br)ncn2-c2ccc(F)cc2)c1F [Compound 450, 4-bromo-5-(2,6-difluoro-3-methoxyphenyl)-1-(4-fluorophenyl)-1H-imidazole] |  |  |  |  |  |  | pest or weed control at 200 ppm ([1]; Blumeria graminis, 168 h, 200 ppm, 0 = no control relative to controls): 100%; pest or weed control at 200 ppm ([2]; Puccinia recondita, 168 h, 200 ppm, 0 = no control relative to controls): 100%; pest or weed control at 200 ppm (Septoria nodorum; Parastagonospora nodorum, 264 h, 200 ppm, 0 = no control relative to controls): 99%; pest or weed control at 200 ppm (Alternaria solani; Alternaria solani, 168 h, 200 ppm, 0 = no control relative to controls): 100%; pest or weed control at 200 ppm (Septoria tritici; Zymoseptoria tritici, 504 h, 200 ppm, 0 = no control relative to controls): 97%; pest or weed control at 200 ppm (Botrytis cinerea; Botrytis cinerea, 120 h, 200 ppm, 0 = no control relative to controls): 97%
COc1ccc(Cn2c(Cl)nc(Cl)c2-c2c(F)cccc2F)cc1Cl [compound 213] |  |  |  |  |  |  | Test J disease control rating ([1]; 200 ppm, 0 = no control): 42%; Test I disease control rating ([2]; 200 ppm, 0 = no control): 100%; Test F disease control rating (Septoria nodorum; 200 ppm, 0 = no control): 0%; Test D disease control rating (Alternaria solani; 200 ppm, 0 = no control): 0%; Test G disease control rating (Septoria tritici; 200 ppm, 0 = no control): 96%; Test C disease control rating (Botrytis cinerea; 200 ppm, 0 = no control): 63%
Cc1ncn(-c2ccc(Cl)c(F)c2)c1-c1ccccn1 [compound 251] |  |  |  |  |  |  | Test J disease control rating ([1]; 200 ppm, 0 = no control): 0%; Test I disease control rating ([2]; 200 ppm, 0 = no control): 9%; Test F disease control rating (Septoria nodorum; 200 ppm, 0 = no control): 0%; Test D disease control rating (Alternaria solani; 200 ppm, 0 = no control): 0%; Test G disease control rating (Septoria tritici; 200 ppm, 0 = no control): 81%; Test C disease control rating (Botrytis cinerea; 200 ppm, 0 = no control): 99%
Fc1ccc(-n2c(Br)nc(Cl)c2-c2c(F)cccc2F)cc1 [compound 72] | 100 | 99 | 92 | 100 | 97 | 96 | 
Cc1nn(C)c(-c2c(F)cccc2Cl)c1-c1cccc(F)c1 [compound 62] | 81 | 0 | 0 | 0 | 5 | 94 | 
Fc1ccc(-n2c(Cl)nc(Cl)c2-c2ccc(F)cc2Cl)cc1 [compound 183] |  |  |  |  |  |  | Test J disease control rating [1, 4]: 48* %; Test I disease control rating [2, 4]: 66* %; Test F disease control rating (Septoria nodorum; [4]): 0* %; Test D disease control rating (Alternaria solani; [4]): 91* %; Test G disease control rating (Septoria tritici; [4]): 85* %; Test C disease control rating (Botrytis cinerea; [4]): 99* %
Cc1ncn(-c2ccc(Cl)c(F)c2)c1-c1c(Cl)cncc1Cl [compound 255] |  |  |  |  |  |  | Test J disease control rating ([1]; 200 ppm, 0 = no control): 91%; Test I disease control rating ([2]; 200 ppm, 0 = no control): 86%; Test F disease control rating (Septoria nodorum; 200 ppm, 0 = no control): 0%; Test D disease control rating (Alternaria solani; 200 ppm, 0 = no control): 0%; Test G disease control rating (Septoria tritici; 200 ppm, 0 = no control): 95%; Test C disease control rating (Botrytis cinerea; 200 ppm, 0 = no control): 99%
Cc1cc(-c2cnc(Cl)n2-c2ccc(Cl)cc2)sc1CCl [compound 452] | 76 | 86 | 0 | 0 | 86 | 55 | 
COc1cc(F)c(-c2c(Cl)nc(Br)n2-c2ccc(F)cc2)c(F)c1 [compound 144] | 100 | 100 | 100 | 100 | 100 | 100 | 
COc1cc(F)c(-c2c(Cl)nc(Cl)n2-c2ccc(F)c(F)c2)c(F)c1 [compound 454] | 100 | 100 | 33 | 100 | 93 | 77 | 
Cc1nc(C)n(-c2ccc(Cl)cc2)c1-c1c(F)ccc(F)c1Cl [compound 388] | 100 | 100 | 60 | 100 | 99 | 99 | 
CSc1ccc(F)c(-c2c(Cl)nc(C)n2-c2ccc(Cl)cc2)c1F [compound 235] |  |  |  |  |  |  | Test J disease control rating ([1]; 200 ppm, 0 = no control): 99%; Test I disease control rating ([2]; 200 ppm, 0 = no control): 97%; Test F disease control rating (Septoria nodorum; 200 ppm, 0 = no control): 92%; Test D disease control rating (Alternaria solani; 200 ppm, 0 = no control): 99%; Test G disease control rating (Septoria tritici; 200 ppm, 0 = no control): 99%; Test C disease control rating (Botrytis cinerea; 200 ppm, 0 = no control): 99%
Cc1nc(Cl)c(-c2c(F)cccc2Cl)n1-c1ccc(F)cc1 [compound 189] |  |  |  |  |  |  | Test J disease control rating ([1]; 200 ppm, 0 = no control): 99%; Test I disease control rating ([2]; 200 ppm, 0 = no control): 100%; Test F disease control rating (Septoria nodorum; 200 ppm, 0 = no control): 51%; Test D disease control rating (Alternaria solani; 200 ppm, 0 = no control): 100%; Test G disease control rating (Septoria tritici; 200 ppm, 0 = no control): 97%; Test C disease control rating (Botrytis cinerea; 200 ppm, 0 = no control): 98%
COc1cc(F)c(-c2c(Cl)ncn2-c2ccc(Cl)cc2)c(Cl)c1 [compound 132] | 97 | 74 | 0 | 98 | 92 | 94 | 
COc1ccc(-c2c(Cl)nc(C)n2-c2ccc(Cl)cc2)c(F)c1C [compound 114] | 72 | 41 | 0 | 0 | 95 | 93 | 
COc1cc(F)c(-c2c(-c3ccc(Cl)cc3)c(C)nn2C)c(F)c1 [compound 77] | 100 | 99 | 82 | 100 | 97 | 98 | 
Fc1cccc(F)c1-c1c(Cl)nc(Br)n1Cc1ccccc1 [compound 95] | 100 | 100 | 95 | 97 | 95 | 96 | 
Fc1cccc(F)c1-n1c(Br)nc(Br)c1-c1ccc(Cl)cc1 [compound 162] |  |  |  |  |  |  | Test J disease control rating [1, 4]: 94* %; Test I disease control rating [2, 4]: 23* %; Test F disease control rating (Septoria nodorum; [4]): 0* %; Test D disease control rating (Alternaria solani; [4]): 97* %; Test G disease control rating (Septoria tritici; [4]): 93* %; Test C disease control rating (Botrytis cinerea; [4]): 88* %
COc1cc(F)c(-c2c(Cl)nc(Cl)n2-c2cccc(F)c2)c(F)c1 [compound 257] |  |  |  |  |  |  | Test J disease control rating ([1]; 200 ppm, 0 = no control): 100%; Test I disease control rating ([2]; 200 ppm, 0 = no control): 100%; Test F disease control rating (Septoria nodorum; 200 ppm, 0 = no control): 99%; Test D disease control rating (Alternaria solani; 200 ppm, 0 = no control): 100%; Test G disease control rating (Septoria tritici; 200 ppm, 0 = no control): 95%; Test C disease control rating (Botrytis cinerea; 200 ppm, 0 = no control): 100%
